Experimental data reported in patent publication US20050238706A1, “Pharmaceutically active lipid based formulation of SN-38” (NeoPharm, Inc., priority 2002, published 2005).

Tests used:
[1] = tested on: P388 murine leukemia tumor cells; test: Therapeutic efficacy in P388 tumor bearing CD2F1 mice; assay type: in vivo, mouse; conditions: for 60-day % Survival: n = 10
Excerpt: (§1) Either female CD2F1 (6-8 weeks old) mice or female C.B-17 SCID mice (4-6 weeks old) were obtained from the vendor and maintained as described previously. The CD2F1 mice were transplanted with P388 murine leukemia tumor cells, whereas the SCID mice were transplanted with HT-29 human colon cancer cells, Capan-1 human pancreatic cancer cells and MX-1 human breast cancer cells. After a suitable waiting period (waiting period varied based on the tumor models), each mouse received intravenous injection via tail vein of placebo liposomes, LE-SN38 or CPT-11 at pre-determined dose levels.

[2] = tested on: HT-29 human colon cancer cells; test: Therapeutic efficacy in HT-29 xenograft, SCID mice; assay type: in vivo; conditions: 8 mg/kg × 5, iv, day 28 post treatment, n = 5
Excerpt: as §1

[3] = tested on: Capan-1 human pancreatic cancer cells; test: Therapeutic efficacy in Capan-1 xenograft, SCID mice; assay type: in vivo; conditions: day 28 post treatment, n = 5
Excerpt: as §1

[4] = tested on: topoisomerase I purified from human and rodent tumor cell lines; conditions: enzyme purified from human and rodent tumor cell lines; cited from earlier work
[5] = cited from earlier work

Structure (SMILES)	median survival time ([1]; 4 mg/kg for 5 consecutive days) [days]	60-day % Survival ([1]; 4 mg/kg × 5, iv) [%]	median survival time ([1]; 8 mg/kg for 5 consecutive days) [days]	60-day % Survival ([1]; 8 mg/kg × 5, iv) [%]	median survival time ([1]; 16 mg/kg for 5 consecutive days) [days]	% Growth Inhibition [2] [%]	% Growth Inhibition ([3]; 8 mg/kg × 5, iv) [%]	% Growth Inhibition ([3]; 16 mg/kg × 5, iv) [%]	potency as an inhibitor of topoisomerase I relative to irinotecan [4]	solubility in aqueous solutions [5]
CCc1c2c(nc3ccc(OC(=O)N4CCC(N5CCCCC5)CC4)cc13)-c1cc3c(c(=O)n1C2)COC(=O)[C@]3(O)CC [CPT-11, irinotecan]	16	0	20	0	22	36	47.8	68.7		
CCc1c2c(nc3ccc(O)cc13)-c1cc3c(c(=O)n1C2)COC(=O)[C@]3(O)CC [SN38, (+)-(4S)-4,11-diethyl-4,9-dihydroxy-1H-pyrano[3′,4′:6,7]-indolizino[1,2-b]quinoline-3,14(4H,12H)-dione]									approximately 1000 times	exceedingly insoluble
